Laboratory results reported in PubChem BioAssay (NCI).
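Five compound concentrations were applied to cells in 96-well plates for 48 hours; endpoints were derived by simple linear interpolation of the resulting dose-response curve. At the GI50, growth is halved. TGI: concentration producing complete growth inhibition.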

Legend:
Assay in all cases: growth of human tumour cells (NCI), 48 h; in the data active = GI50 below about 0.43 µM; inactive = the rest
[1] = test system: UACC-62 melanoma
[2] = test system: MOLT-4 leukemia
[3] = test system: 786-0 renal
[4] = test system: LOX IMVI melanoma
[5] = test system: SW-620 colon
[6] = test system: RXF 393 renal
[7] = test system: XF 498 CNS
[8] = test system: DMS 114 small cell lung
[9] = test system: OVCAR-8 ovarian
[10] = test system: HOP-18 NSCLC
[11] = test system: DU-145 prostate
[12] = test system: MDA-MB-231 breast

O=C1c2ccncc2C(=O)c2c(O)ccc(O)c21
25.5 µM: TGI [10]
11.5 µM: TGI [5]
21.4 µM: TGI [9]
54.5 µM: TGI [2]
10.6 µM: TGI [1]
16.8 µM: TGI [6]
13 µM: TGI [8]
18.3 µM: TGI [4]
15.2 µM: TGI [7]
19.2 µM: TGI [3]

Cc1nc2ccc(Cl)cc2c2c1CCO2
> 100 µM: TGI [1] | TGI [2] | TGI [3] | TGI [4] | TGI [5] | TGI [9] | TGI [11] | TGI [12]
71.3 µM: TGI [6]

COc1ccc(-n2c(N)c(C#N)c(C#N)c2-c2ccco2)cc1
> 100 µM: TGI [1] | TGI [2] | TGI [3] | TGI [4] | TGI [5] | TGI [6] | TGI [9] | TGI [11] | TGI [12]

C=CC(C)(C)/C=C/c1ccc(O)cc1
> 100 µM: TGI [1] | TGI [2] | TGI [3] | TGI [5] | TGI [6] | TGI [9] | TGI [11] | TGI [12]
45.6 µM: TGI [4]

C/C(=C\Cc1ccc(F)cc1)CCCCCC/C(C)=C/Cc1ccc(F)cc1
27.8 µM: TGI [11]
47.6 µM: TGI [2]
21.9 µM: TGI [3]
19.9 µM: TGI [4]
39.6 µM: TGI [9]
33 µM: TGI [1]
37.9 µM: TGI [12]
48.6 µM: TGI [5]
42.1 µM: TGI [6]

Cc1nc2ccc(Br)cc2c(=O)n1-c1ccc(N)cc1
> 100 µM: TGI [1] | TGI [2] | TGI [3] | TGI [4] | TGI [5] | TGI [9] | TGI [11] | TGI [12]
81.8 µM: TGI [6]

COC(=O)[C@@H](NS(=O)(=O)CC12CCC(CC1)C2(C)C)C(C)(C)C
> 100 µM: TGI [1] | TGI [3] | TGI [4] | TGI [5] | TGI [6] | TGI [9] | TGI [11] | TGI [12]
70 µM: TGI [2]

COC(=O)C1C(=O)CC(C)(O)C(C(=O)OC)C1c1ccc(N(C)C)cc1 (stereo unspecified)
24.7 µM: TGI [3]
> 100 µM: TGI [1] | TGI [2] | TGI [5] | TGI [6] | TGI [9] | TGI [11] | TGI [12]
24.4 µM: TGI [4]

Cc1cc2nc3ccccc3n2c2ccccc12
> 10 µM: TGI [1] | TGI [2] | TGI [3] | TGI [4] | TGI [5] | TGI [6] | TGI [9] | TGI [11] | TGI [12]

Nc1ccc2c(=O)cc(-c3ccc(Br)s3)[nH]c2n1
> 100 µM: TGI [1] | TGI [3] | TGI [4] | TGI [5] | TGI [6] | TGI [11]
> 57.2 µM: TGI [9]
13.2 µM: TGI [2]
> 94.8 µM: TGI [12]

Cc1cc(C)c2c(c1)C/C(=C\c1cccc(C)c1C(=O)O)C2=O
> 100 µM: TGI [1] | TGI [2] | TGI [3] | TGI [4] | TGI [5] | TGI [6] | TGI [9] | TGI [11] | TGI [12]

Cc1ccc(N2C(=O)C3CSCN3C2=O)cc1 (stereo unspecified)
inactive: GI50 [6] > 100 µM
> 100 µM: TGI [1] | TGI [2] | TGI [4] | TGI [5] | TGI [6] | TGI [7] | TGI [8] | TGI [9] | TGI [10]

CCOC(=O)CCc1cn2cc(Br)nc(OC)c2n1
> 100 µM: TGI [1] | TGI [2] | TGI [3] | TGI [4] | TGI [5] | TGI [6] | TGI [9] | TGI [11] | TGI [12]

CCOc1ccc2nc3nc(=O)[nH]c(C)c3c(NC(C)(CO)CO)c2c1
> 100 µM: TGI [1] | TGI [2] | TGI [3] | TGI [4] | TGI [5] | TGI [6] | TGI [9] | TGI [11] | TGI [12]

O=S(=O)(/N=S(/Nc1ccccc1)C(F)(F)Cl)c1ccccc1 (stereo unspecified)
> 100 µM: TGI [1] | TGI [2] | TGI [3] | TGI [4] | TGI [5] | TGI [6] | TGI [9] | TGI [11] | TGI [12]

Clc1ccc(-c2nn3c(COc4cccc(OCc5nnc6sc(-c7ccc(Cl)cc7)nn56)c4)nnc3s2)cc1
77.6 µM: TGI [6]
74.3 µM: TGI [11]
74.6 µM: TGI [2]
> 100 µM: TGI [4] | TGI [5] | TGI [9] | TGI [12]
77.1 µM: TGI [1]
59.9 µM: TGI [3]
